Results reported in PubChem BioAssay AID248 (DTP/NCI, 2004).
Values joined by “and” are separate entries in the source; they are usually repeats but may differ in a detail not shown here. Equal values may be shown once. Toxic doses and inconclusive results are not listed. No stated cut-off is given here; in the data, active means T/C of 150% or more; inactive means T/C below 125%.

System: L1210 leukemia ip in BDF1 mice, survival T/C
Experiment: NCI In Vivo Anticancer Drug Screen. Data for tumor model L1210 Leukemia (intraperitoneal) in B6D2F1 (BDF1) mice
Details: endpoint: mean survival time, higher = longer survival
How it was run: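 Mice bearing the transplanted tumor received compound or vehicle. Survival of the treated group was divided by that of the vehicle-treated control group to give the ratio.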

[1] = dose: 100.0 mg/kg/injection, schedule: Q01DX001 (ip), vehicle: other
[2] = dose: 200.0 mg/kg/injection, schedule: Q01DX001 (ip), vehicle: other
[3] = dose: 400.0 mg/kg/injection, schedule: Q01DX001 (ip), vehicle: other
[4] = dose: 100.0 mg/kg/injection, schedule: Q04DX003 (ip), vehicle: Klucel (hydroxypropylcellulose) (HPC)
[5] = dose: 200.0 mg/kg/injection, schedule: Q04DX003 (ip), vehicle: Klucel (hydroxypropylcellulose) (HPC)
[6] = dose: 400.0 mg/kg/injection, schedule: Q04DX003 (ip), vehicle: Klucel (hydroxypropylcellulose) (HPC)
[7] = dose: 100.0 mg/kg/injection, schedule: Q01DX009 (ip), vehicle: Klucel (hydroxypropylcellulose) (HPC)
[8] = dose: 200.0 mg/kg/injection, schedule: Q01DX009 (ip), vehicle: Klucel (hydroxypropylcellulose) (HPC)
[9] = dose: 400.0 mg/kg/injection, schedule: Q01DX009 (ip), vehicle: Klucel (hydroxypropylcellulose) (HPC)
[10] = dose: 100.0 mg/kg/injection, schedule: Q04DX003 (ip), vehicle: saline
[11] = dose: 200.0 mg/kg/injection, schedule: Q04DX003 (ip), vehicle: saline
[12] = dose: 400.0 mg/kg/injection, schedule: Q04DX003 (ip), vehicle: saline
[13] = dose: 100.0 mg/kg/injection, schedule: Q01DX009 (ip), vehicle: saline with Tween-80
[14] = dose: 100.0 mg/kg/injection, schedule: Q04DX003 (ip), vehicle: saline with Tween-80
[15] = dose: 200.0 mg/kg/injection, schedule: Q04DX003 (ip), vehicle: saline with Tween-80
[16] = dose: 100.0 mg/kg/injection, schedule: Q01DX009 (ip), vehicle: saline
[17] = dose: 200.0 mg/kg/injection, schedule: Q01DX009 (ip), vehicle: saline
[18] = dose: 400.0 mg/kg/injection, schedule: Q01DX009 (ip), vehicle: saline

Measured: T/C

Cc1cc(Cl)c(Cl)cc1NC(=O)c1ccccc1F
inactive: [1] 94 % of control | dose: 100.0 mg/kg/injection, schedule: Q01DX009 (ip), vehicle: other 107 % of control and 92 % of control | dose: 100.0 mg/kg/injection, schedule: Q04DX002 (ip), vehicle: other 98 % of control and 102 % of control | dose: 100.0 mg/kg/injection, schedule: Q04DX003 (ip), vehicle: other 98 % of control | [2] 92 % of control | dose: 200.0 mg/kg/injection, schedule: Q01DX009 (ip), vehicle: other 90 % of control and 92 % of control | dose: 200.0 mg/kg/injection, schedule: Q04DX002 (ip), vehicle: other 105 % of control and 91 % of control | dose: 200.0 mg/kg/injection, schedule: Q04DX003 (ip), vehicle: other 100 % of control | [3] 91 % of control | dose: 400.0 mg/kg/injection, schedule: Q01DX009 (ip), vehicle: other 90 % of control and 92 % of control | dose: 400.0 mg/kg/injection, schedule: Q04DX002 (ip), vehicle: other 100 % of control and 102 % of control | dose: 400.0 mg/kg/injection, schedule: Q04DX003 (ip), vehicle: other 96 % of control

Nc1nc(-c2ccccc2)c(CCCNC(=O)c2ccc([N+](=O)[O-])cc2)c(=O)[nH]1
inactive: [4] 93 % of control | [5] 93 % of control | [6] 90 % of control

O=C(Nc1c(Br)cc2c(c1Br)Cc1cc(Br)ccc1-2)C(F)(F)F
inactive: dose: 100.0 mg/kg/injection, schedule: Q01DX001 (ip), vehicle: saline 94 % of control | dose: 200.0 mg/kg/injection, schedule: Q01DX001 (ip), vehicle: saline 101 % of control | dose: 400.0 mg/kg/injection, schedule: Q01DX001 (ip), vehicle: saline 106 % of control

O=C(NCCCCCCCCCCCCNC(=O)Nc1cccc(C2=NCC(O)CN2)c1)Nc1cccc(C2=NCC(O)CN2)c1 (stereo unspecified)
inactive: dose: 62.5 mg/kg/injection, schedule: Q01DX Z (ip), vehicle: carboxymethylcellulose (CMC) 105 % of control | dose: 125.0 mg/kg/injection, schedule: Q01DX Z (ip), vehicle: carboxymethylcellulose (CMC) 94 % of control

COC(=O)c1cccc(C)c1C(=O)c1ccccc1
inactive: [7] 104 % of control | [4] 101 % of control | [8] 96 % of control | [5] 101 % of control | [9] 98 % of control | [6] 95 % of control

c1ccc2cc(Nc3ccc(Nc4ccc5ccccc5c4)cc3)ccc2c1
inactive: dose: 75.0 mg/kg/injection, schedule: Q01DX009 (ip), vehicle: Klucel (hydroxypropylcellulose) (HPC) 103 % of control | [10] 106 % of control | dose: 150.0 mg/kg/injection, schedule: Q01DX009 (ip), vehicle: Klucel (hydroxypropylcellulose) (HPC) 104 % of control | [11] 97 % of control | dose: 300.0 mg/kg/injection, schedule: Q01DX009 (ip), vehicle: Klucel (hydroxypropylcellulose) (HPC) 110 % of control | [12] 100 % of control

CCOC(=O)C(NC(N)=O)C(=O)OCC
inactive: [7] 95 % of control | [4] 95 % of control | [8] 101 % of control | [5] 97 % of control | [9] 101 % of control | [6] 104 % of control

CC(=O)OCC(=O)C12OC1CC1C3CCC4CC(=O)CCC4(C)C3CC(=O)C12C (stereo unspecified)
inactive: [1] 89 % of control | [2] 90 % of control | [3] 97 % of control

CCCCCCCCCCCCCCCCCCNC(=O)Nc1cccc(C)c1C
inactive: [7] 92 % of control | [4] 87 % of control | [8] 89 % of control | [5] 92 % of control | [9] 94 % of control | [6] 88 % of control

Cc1ccc(C(=O)C2CC2)c(C)c1
inactive: [13] 105 % of control | [14] 96 % of control | dose: 200.0 mg/kg/injection, schedule: Q01DX009 (ip), vehicle: saline with Tween-80 98 % of control | [15] 95 % of control | dose: 400.0 mg/kg/injection, schedule: Q01DX009 (ip), vehicle: saline with Tween-80 109 % of control | dose: 400.0 mg/kg/injection, schedule: Q04DX003 (ip), vehicle: saline with Tween-80 93 % of control

O=C(O)c1cc(Br)cc(Cl)c1Br
inactive: dose: 100.0 mg/kg/injection, schedule: Q04DX002 (ip), vehicle: Klucel (hydroxypropylcellulose) (HPC) 96 % of control | dose: 200.0 mg/kg/injection, schedule: Q04DX002 (ip), vehicle: Klucel (hydroxypropylcellulose) (HPC) 96 % of control

C=C(Cl)C[N+]12CN3CN(CN(C3)C1)C2
inactive: dose: 12.5 mg/kg/injection, schedule: Q01DX009 (ip), vehicle: saline 108 % of control | dose: 12.5 mg/kg/injection, schedule: Q04DX003 (ip), vehicle: saline 102 % of control | dose: 25.0 mg/kg/injection, schedule: Q01DX009 (ip), vehicle: saline 101 % of control | dose: 25.0 mg/kg/injection, schedule: Q04DX003 (ip), vehicle: saline 104 % of control | dose: 50.0 mg/kg/injection, schedule: Q01DX009 (ip), vehicle: saline 111 % of control | dose: 50.0 mg/kg/injection, schedule: Q04DX003 (ip), vehicle: saline 102 % of control

CCCCSCC(N)C(=O)OC (stereo unspecified)
inactive: [16] 96 % of control | [10] 106 % of control | [17] 101 % of control | [11] 100 % of control | [18] 112 % of control | [12] 97 % of control

CCN(CC)C(=O)/C=C/C(=O)N(CC)CC
inactive: [10] 103 % of control | [11] 100 % of control | [12] 100 % of control

O=c1cc(CO)[nH]nc1CO
inactive: [16] 97 % of control | [10] 101 % of control | [17] 97 % of control | [11] 106 % of control | [18] 97 % of control | [12] 103 % of control

CC(C)=CCNc1nc(=O)[nH]c2nc[nH]c12
inactive: dose: 75.0 mg/kg/injection, schedule: Q01DX001 (ip), vehicle: saline 92 % of control | dose: 150.0 mg/kg/injection, schedule: Q01DX001 (ip), vehicle: saline 88 % of control | dose: 300.0 mg/kg/injection, schedule: Q01DX001 (ip), vehicle: saline 88 % of control

Nc1ccc(S(=O)(=O)O)cc1[N+](=O)[O-]
inactive: [10] 93 % of control | [11] 95 % of control | [12] 96 % of control

CC1(C)C=Cc2ccccc21
inactive: [14] 104 % of control | [15] 96 % of control

O=C(NCCCCCCNC(=O)Nc1cccc2ccccc12)Nc1cccc2ccccc12
inactive: [7] 97 % of control | [8] 103 % of control | [9] 92 % of control

O=C(SC(=S)NCCNC(=S)SC(=O)c1ccccc1)c1ccccc1
inactive: dose: 50.0 mg/kg/injection, schedule: Q04DX002 (ip), vehicle: saline with Tween-80 95 % of control | dose: 100.0 mg/kg/injection, schedule: Q04DX002 (ip), vehicle: saline with Tween-80 87 % of control | dose: 200.0 mg/kg/injection, schedule: Q04DX002 (ip), vehicle: saline with Tween-80 98 % of control

N=C(N)S(=O)O
inactive: [13] 104 % of control
